Experimental data reported in the OPERA property sets (Mansouri et al. 2018).

| Structure (SMILES) | logP |
| --- | --- |
| O=C1NC(=O)C2(CC2)C(=O)N1 | -0.53 |
| CCC1(CC=C(C)C)C(=O)NC(=O)NC1=O | 1.73 |
| O=C1NC(=O)C2(CCCCCCC2)C(=O)N1 | 1.79 |
| O=C1NC(=O)C2(CCCCC2)C(=O)N1 | 0.91 |
| CCC1(C)C(=O)NC(=O)NC1=O | 0.08 |
| O=C1NC(=O)C2(CCC2)C(=O)N1 | -0.27 |
| O=C1NC(=O)C2(CCCCCC2)C(=O)N1 | 1.36 |
| O=C1NC(=O)C(c2ccccc2)(c2ccccc2)C(=O)N1 | 1.96 |
| CC(C)=CCC1(C(C)C)C(=O)NC(=O)NC1=O | 2.23 |
| O=C1NC(=S)NC(=O)C12CCCCC2 | 1.78 |
| CC1(c2ccccc2)C(=O)NC(=O)NC1=O | 0.91 |
| O=C1NC(=O)C2(CCCCCCCCCC2)C(=O)N1 | 3.15 |
| O=C1NC(=O)C2(CCCC2)C(=O)N1 | 0.24 |
| O=C1NC(=O)C2(CCCCCCCCCCC2)C(=O)N1 | 3.51 |
| C=CCC1(C)C(=O)NC(=O)NC1=O | 0.36 |
| CC1(C)C(=O)NC(=O)NC1=O | -0.44 |
| CC(C)=CCC1(C(C)(C)C)C(=O)NC(=O)NC1=O | 2.56 |
